Measured values as given in ChEMBL document CHEMBL1150637, “African elephant sesquiterpenes. II. Identification and synthesis of new derivatives of 2,3-dihydrofarnesol” (J Nat Prod, 2002).
The source made the active and inactive calls. The calls are words filed in the database; no cut-off is given here.

Test system: Mycobacterium tuberculosis
Experiment: Antimycobacterial activity against Mycobacterium tuberculosis by radiorespirometric bioassay
Assay type: functional, organism-based

CC(C)=CCC/C(C)=C/CC/C(C)=C/CO
Activity: Active
